Literature values in US20060258652A1, “Beta-blockers having antioxidant and no-donor activity” (priority 2002, published 2006).

Assays:
[1] = double-blind study, hypertensive patients
[2] = prophylactic use

CC(C)NCC(O)COc1ccc(CC(N)=O)cc1 (centres unmarked) [atenolol]
efficacy in anxiety compared with propranolol [1]: considerably better than propranolol

CC(C)NCC(O)COc1cccc2ccccc12 (centres unmarked) [Propranolol]
patients in whom the incidence of migraine attacks is reduced [2]: 60%
